Results: US9321760B2 (Merck Patent GmbH, priority 2011, dated 2016)

Target: P70S6K (T412E mutant) (Homo sapiens (Human), UniProt P23443, T412E)
Assay: P70S6K enzyme assay
Type: biochemical
Settings: 3 nM P70S6K T412E mutant, 24 μM ATP, 1 μM FITC-AHA-AKRRRLSSLRA-OH substrate peptide, 90 min at 25° C.
Outline: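 P70S6K T412E mutant (3 nM) with 24 μM ATP and 1 μM FITC-labelled S6-derived peptide in Hepes pH 7.5, MgCl2, DTT, Brij buffer; 90 min at 25° C, stopped with EDTA. Phosphorylated product and substrate peptides separated by microfluidic mobility shift; IC50 values derived.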

P70S6K (T412E mutant), sequence (P23443 whole entry T412E): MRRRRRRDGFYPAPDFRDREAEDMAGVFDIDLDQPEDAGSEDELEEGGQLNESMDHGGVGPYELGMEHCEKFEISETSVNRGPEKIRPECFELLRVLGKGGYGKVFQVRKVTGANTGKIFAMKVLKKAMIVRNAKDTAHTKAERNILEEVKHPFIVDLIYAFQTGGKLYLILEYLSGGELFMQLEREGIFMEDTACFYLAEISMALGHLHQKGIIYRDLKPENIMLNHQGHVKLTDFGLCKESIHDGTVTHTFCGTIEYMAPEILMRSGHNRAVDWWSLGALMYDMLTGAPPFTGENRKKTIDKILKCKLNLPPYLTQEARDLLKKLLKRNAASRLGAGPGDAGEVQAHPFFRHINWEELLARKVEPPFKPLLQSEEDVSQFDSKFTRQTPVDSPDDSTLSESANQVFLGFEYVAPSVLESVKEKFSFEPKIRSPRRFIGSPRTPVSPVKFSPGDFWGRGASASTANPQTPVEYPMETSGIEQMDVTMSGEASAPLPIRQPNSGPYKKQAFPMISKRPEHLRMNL

IC50 | Structure (SMILES)
590 nM | N#CC(c1ccc(F)c(Cl)c1)N1CCN(c2ncnc(N)c2-c2ccc(F)cc2)CC1 (centres unmarked) [Example 160, {4-[6-Amino-5-(4-fluoro-phenyl)-pyrimidin-4-yl]-piperazin-1-yl}-(3-chloro-4-fluoro-phenyl)-acetonitrile]
> 1000 nM | NCC(c1ccc(C(F)(F)F)cc1)N1CCN(c2ncnc(N)c2O)CC1 (centres unmarked) [Example 35, 4-amino-6-(4-(2-amino-1-(4-(trifluoromethyl)phenyl)ethyl)piperazin-1-yl) pyrimidin-5-ol]
15 nM | Nc1ncnc(N2CCN(C(CN3CCCC3)c3ccc(F)cc3)CC2)c1-c1ccc(F)cc1 (centres unmarked) [Example 75, 5-(4-Fluorophenyl)-6{4-[1-(4-fluorophenyl)-2-pyrrolidin-1-yl-ethyl]-piperazin-1-yl}-pyrimidin-4-ylamine]
450 nM | CCc1c(N)ncnc1N1CCC(N)(C(=O)N[C@@H](CCO)c2ccc(Cl)cc2)CC1 [Example 214, 4-Amino-1-(6-amino-5-ethyl-pyrimidin-4-yl)-piperidine-4-carboxylic acid [(S)-1-(4-chloro-phenyl)-3-hydroxy-propyl]-amide]
210 nM | NCC(c1ccc(C(F)(F)F)cc1)N1CCN(c2ncnc(N)c2CN2CC(F)C2)CC1 (centres unmarked) [Example 45, 6-(4-(2-amino-1-(4-(trifluoromethyl)phenyl)ethyl)piperazin-1-yl)-5-((3-fluoroazetidin-1-yl)methyl)pyrimidin-4-amine]
260 nM | CN(C)CC(c1ccc(C(F)(F)F)cc1)N1CCN(c2ncnc(N)c2C2CC2)CC1 (centres unmarked) [Example 28, 5-Cyclopropyl-6-(4-(2-(dimethylamino)-1-(4-(trifluoromethyl)phenyl)ethyl)piperazin-1-yl)pyrimidin-4-amine]
6.3 nM | NCC(c1ccccc1)N1CCN(c2ncnc(N)c2-c2ccc(F)cc2)CC1 (centres unmarked) [Example 6, 6-[4-(2-Amino-1-phenyl-ethyl)-piperazin-1-yl]-5-(4-fluoro-phenyl)-pyrimidin-4-ylamine]
> 1000 nM | Nc1cc(N2CCN(C(CN3CCCC3)c3cccc(C(F)(F)F)c3)CC2)ncn1 (centres unmarked) [Example 73, 6-{4-[1-(3-trifluoromethyl-phenyl)-2-pyrrolidin-1-yl-ethyl]-piperazin-1-yl}-pyrimidin-4-ylamine]
920 nM | Nc1ncnc(N2CCN([C@@H](CN3CCC3)c3cccc(F)c3)CC2)c1-c1ccc(F)cc1 [Example 103, 6-{4-[(R)-2-Azetidin-1-yl-1-(3-fluoro-phenyl)-ethyl]-piperazin-1-yl}-5-(4-fluoro-phenyl)-pyrimidin-4-ylamine]
3700 nM | Nc1ncnc(N2CCN([C@H](CN3CCC3)c3ccc4c(c3)OCCO4)CC2)c1-c1cn[nH]c1 [Example 108, 6-{4-[(S)-2-Azetidin-1-yl-1-(2,3-dihydro-benzo[1,4]dioxin-6-yl)-ethyl]-piperazin-1-yl}-5-(1H-pyrazol-4-yl)-pyrimidin-4-ylamine]
31 nM | Cn1cc(-c2c(N)ncnc2N2CCC(C(CN)c3ccc(C(F)(F)F)cc3)CC2)cn1 (centres unmarked) [Example 58, 6-(4-(2-amino-1-(4-(trifluoromethyl)phenyl)ethyl)piperidin-1-yl)-5-(1-methyl-1H-pyrazol-4-yl)pyrimidin-4-amine]
140 nM | N#CC(c1ccc(C(F)(F)F)nc1)N1CCN(c2ncnc(N)c2-c2ccc(F)cc2)CC1 (centres unmarked) [Example 189, {4-[6-Amino-5-(4-fluoro-phenyl)-pyrimidin-4-yl]-piperazin-1-yl}-(6-trifluoromethyl-pyridin-3-yl)-acetonitrile]
3.4 nM | COc1ccc(C(CN)N2CCN(c3ncnc(N)c3-c3ccc(F)cc3)CC2)cn1 (centres unmarked) [Example 183, 6-(4-(2-amino-1-(6-methoxypyridin-3-yl)ethyl)piperazin-1-yl)-5-(4-fluorophenyl)pyrimidin-4-amine]
6.1 nM | NCC(c1ccc(Cl)c(F)c1)N1CCN(c2ncnc(N)c2-c2cn[nH]c2)CC1 (centres unmarked) [Example 187, 6-(4-(2-amino-1-(4-chloro-3-fluorophenyl)ethyl)piperazin-1-yl)-5-(1H-pyrazol-4-yl)pyrimidin-4-amine]
320 nM | N#Cc1ccc(C(CN2CCC2)N2CCN(c3ncnc(N)c3-c3ccc(F)cc3)CC2)cc1 (centres unmarked) [Example 106, 4-(1-{4-[6-Amino-5-(4-fluoro-phenyl)-pyrimidin-4-yl]-piperazin-1-yl}-2-azetidin-1-yl-ethyl)-benzonitrile]
69 nM | CN(C)CC(c1ccc(C(F)(F)F)cc1)N1CCN(c2ncnc(N)c2-c2ccc(N)nc2)CC1 (centres unmarked) [Example 20, 5-(6-aminopyridin-3-yl)-6-(4-(2-(dimethylamino)-1-(4-(trifluoromethyl)-phenyl)ethyl)piperazin-1-yl)pyrimidin-4-amine]
200 nM | C[C@H](NC(=O)C1(N)CCN(c2ncnc(N)c2C#N)CC1)c1ccc(Cl)cc1 [Example 218, 4-Amino-1-(6-amino-5-cyano-pyrimidin-4-yl)-piperidine-4-carboxylic acid [(S)-1-(4-chloro-phenyl)-ethyl]-amide]
14 nM | N#Cc1c(N)ncnc1N1CCN(C(CN)c2ccc(C(F)(F)F)cc2)CC1 (centres unmarked) [Example 36, 4-Amino-6-{4-[2-amino-1-(4-trifluoromethyl-phenyl)-ethyl]-piperazin-1-yl}-pyrimidine-5-carbonitrile]
5.3 nM | Nc1ncnc(N2CCC(N)(CNC(=O)c3ccc(F)cc3F)C2)c1-c1ccccc1 (centres unmarked) [Example 203, N-[3-Amino-1-(6-amino-5-phenyl-pyrimidin-4-yl)-pyrrolidin-3-ylmethyl]-2,4-difluoro-benzamide]
200 nM | N#CC(C1CCCCC1)N1CCN(c2ncnc(N)c2-c2ccc(F)cc2)CC1 (centres unmarked) [Example 191, {4-[6-Amino-5-(4-fluoro-phenyl)-pyrimidin-4-yl]-piperazin-1-yl}-cyclohexyl-acetonitrile]
5.7 nM | NC[C@@H](c1ccc(C(F)(F)F)cc1)N1CCN(c2ncnc(N)c2-c2cn[nH]c2)CC1 [Example 9, (R)-6-(4-(2-amino-1-(4-(trifluoromethyl)phenyl)ethyl)piperazin-1-yl)-5-(1H-pyrazol-4-yl)pyrimidin-4-amine]
> 1000 nM | N#CC(c1ccc(C(F)(F)F)cc1)N1CCN(c2ncnc(N)c2Br)CC1 (centres unmarked) [Example 167, [4-(6-Amino-5-bromo-pyrimidin-4-yl)-piperazin-1-yl]-(4-trifluoromethyl-phenyl)-acetonitrile]
66 nM | Nc1ncnc(N2CCC(Cc3ccc(C(F)(F)F)cc3)CC2)c1-c1ccc(F)cc1 [Example 48, 5-(4-Fluorophenyl)-6{4-(4-trifluoromethylbenzyl)-piperidin-1-yl}pyrimidin-4-amine]
1400 nM | Nc1ncnc(N2CCN([C@H](CN3CCC3)c3cccc(F)c3)CC2)c1-c1ccc(F)cc1 [Example 102, 6-{4-[(S)-2-Azetidin-1-yl-1-(3-fluoro-phenyl)-ethyl]-piperazin-1-yl}-5-(4-fluoro-phenyl)-pyrimidin-4-ylamine]
> 1000 nM | CCc1c(N)ncnc1N1CCN(C(CN)C2CCCCC2)CC1 (centres unmarked) [Example 188, 6-[4-(2-Amino-1-cyclohexyl-ethyl)-piperazin-1-yl]-5-ethyl-pyrimidin-4-ylamine]
4.5 nM | NC[C@@H](c1ccc(C(F)(F)F)cc1)N1CCN(c2ncnc(N)c2-c2ccc(F)cc2)CC1 [Example 4, 6-{4-[(R)-2-Amino-1-(4-trifluoromethyl-phenyl)-ethyl]-piperazin-1-yl}-5-(4-fluoro-phenyl)-pyrimidin-4-ylamine]
